For the first data set, the system named is Huh-7 cells containing the self-replicating, subgenomic HCV replicon. The experiment in a line: HCV replicon assay (luciferase reporter). The class given is cell-based. As to conditions: Hepatitis C virus, Huh-7, 72 h. On the technique in general: In antiviral work, replicon cells carry a viral genome segment that copies itself.
Chain of human mitochondrial RNA polymerase (O00411 42-1230): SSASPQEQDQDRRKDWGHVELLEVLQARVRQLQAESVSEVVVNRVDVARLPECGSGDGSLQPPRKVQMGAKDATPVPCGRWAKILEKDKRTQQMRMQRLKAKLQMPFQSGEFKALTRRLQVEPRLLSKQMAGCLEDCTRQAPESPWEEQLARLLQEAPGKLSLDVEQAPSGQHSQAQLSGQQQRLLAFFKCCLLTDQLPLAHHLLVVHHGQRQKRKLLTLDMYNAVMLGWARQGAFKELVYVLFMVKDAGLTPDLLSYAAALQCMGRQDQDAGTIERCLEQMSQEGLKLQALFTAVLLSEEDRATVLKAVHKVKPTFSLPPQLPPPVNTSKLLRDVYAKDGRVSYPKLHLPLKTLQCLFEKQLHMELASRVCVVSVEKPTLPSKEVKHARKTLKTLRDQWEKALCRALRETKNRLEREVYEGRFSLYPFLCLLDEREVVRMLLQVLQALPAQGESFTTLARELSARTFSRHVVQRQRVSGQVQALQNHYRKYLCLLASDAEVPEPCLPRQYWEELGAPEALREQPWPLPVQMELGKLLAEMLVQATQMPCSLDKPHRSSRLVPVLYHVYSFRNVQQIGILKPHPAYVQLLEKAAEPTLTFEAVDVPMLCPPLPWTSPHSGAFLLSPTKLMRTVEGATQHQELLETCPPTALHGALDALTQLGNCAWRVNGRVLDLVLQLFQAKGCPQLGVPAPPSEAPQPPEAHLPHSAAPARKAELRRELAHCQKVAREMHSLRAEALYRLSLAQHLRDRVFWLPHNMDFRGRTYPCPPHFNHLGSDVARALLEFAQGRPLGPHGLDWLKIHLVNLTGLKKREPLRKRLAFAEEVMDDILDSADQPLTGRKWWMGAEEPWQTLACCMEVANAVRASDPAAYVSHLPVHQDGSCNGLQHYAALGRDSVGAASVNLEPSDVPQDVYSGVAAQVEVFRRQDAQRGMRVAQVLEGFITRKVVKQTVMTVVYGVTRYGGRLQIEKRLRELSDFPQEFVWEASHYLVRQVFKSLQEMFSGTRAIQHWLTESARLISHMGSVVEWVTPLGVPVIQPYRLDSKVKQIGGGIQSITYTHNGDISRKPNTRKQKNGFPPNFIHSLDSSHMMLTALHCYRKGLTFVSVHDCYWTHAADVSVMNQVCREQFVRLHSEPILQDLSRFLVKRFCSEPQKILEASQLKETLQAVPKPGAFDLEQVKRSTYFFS
On to `C[C@H](NP(=O)(OC[C@H]1O[C@@H](n2cnc3c(=O)[nH]c(N)nc32)[C@](C)(O)[C@@H]1F)Oc1ccc(F)c(Cl)c1)C(=O)OC1CCCCC1` (stereo partly drawn) [Compound 8, (2S)-cyclohexyl 2-(((((2R,3R,4S,5R)-5-(2-amino-6-oxo-1H-purin-9(6H)-yl)-3-fluoro-4-hydroxy-4-methyltetrahydrofuran-2-yl)methoxy)(3-chloro-4-fluorophenoxy)phosphoryl)amino)propanoate], for which the EC50 (usually the concentration giving half of the maximal effect) lay within 10 to 100 µM.

As to `CCOc1nc(N)nc2c1ncn2[C@@H]1O[C@H](COP(=S)(N[C@@H](C)C(=O)OCC(C)(C)C)Oc2ccccc2)[C@@H](F)[C@@]1(C)O` (stereo partly shown) [Compound 13], the EC50 was in the range of 1 to 10 µM. The same measure, in the same setting: as for `CCOc1nc(N)nc2c1ncn2[C@@H]1O[C@H](COP(=S)(N[C@@H](C)C(=O)OC(C)C)Oc2ccccc2)[C@@H](F)[C@@]1(C)O` (stereo partly shown) [Compound 11], the figure is 10 to 100 µM. In turn, `CCOc1nc(N)nc2c1ncn2[C@@H]1O[C@H](COP(=O)(N[C@@H](C)C(=O)OC(C)C)Oc2ccccc2)[C@@H](F)[C@@]1(C)O` (stereo partly shown) [Compound 10] had an EC50 of less than 1 µM. On the same count and under the same terms, the figure for `CCOc1nc(N)nc2c1ncn2[C@@H]1O[C@H](COP(=O)(N[C@@H](C)C(=O)OC2CCCCC2)Oc2ccccc2)[C@@H](F)[C@@]1(C)O` (stereo partly drawn) [Compound 5, (2S)-cyclohexyl 2-(((((2R,3R,4S,5R)-5-(2-amino-6-ethoxy-1H-purin-9(6H)-yl)-3-fluoro-4-hydroxy-4-methyltetrahydrofuran-2-yl)methoxy)(phenoxy)phosphoryl)amino)propanoate] is less than 1 µM. As to `CCOc1nc(N)nc2c1ncn2[C@@H]1O[C@H](COP(=S)(N[C@@H](C)C(=O)OC2CCCCC2)Oc2ccccc2)[C@@H](F)[C@@]1(C)O` (stereo partly shown) [Compound 12], the EC50 was in the range of 1 to 10 µM.

For `CCOc1nc(N)nc2c1ncn2[C@@H]1O[C@H](COP(=O)(N[C@@H](C)C(=O)OCC(C)(C)C)Oc2ccccc2Cl)[C@@H](F)[C@@]1(C)O` (stereo partly drawn) [Compound 2, (2S)-neopentyl 2-(((((2R,3R,4S,5R)-5-(2-amino-6-ethoxy-1H-purin-9(6H)-yl)-3-fluoro-4-hydroxy-4-methyltetrahydrofuran-2-yl)methoxy)(2-chlorophenoxy)phosphoryl)amino)propanoate], the EC50 was less than 1 µM.

Regarding `CCOc1nc(N)nc2c1ncn2[C@@H]1O[C@H](COP(=O)(N[C@@H](C)C(=O)OCC(C)(C)C)Oc2ccccc2)[C@@H](F)[C@@]1(C)O` (stereo partly drawn) [Compound 4, (2S)-neopentyl 2-(((((2R,3R,4S,5R)-5-(2-amino-6-ethoxy-1H-purin-9(6H)-yl)-3-fluoro-4-hydroxy-4-methyltetrahydrofuran-2-yl)methoxy)(phenoxy)phosphoryl)amino)propanoate], the EC50 was less than 1 µM. Still for that read-out and setting: the figure for `CCOc1nc(N)nc2c1ncn2[C@@H]1O[C@H](COP(=O)(N[C@@H](C)C(=O)OC2CCCCC2)Oc2ccc(F)c(Cl)c2)[C@@H](F)[C@@]1(C)O` (stereo partly drawn) [Compound 3, (2S)-cyclohexyl 2-(((((2R,3R,4S,5R)-5-(2-amino-6-ethoxy-1H-purin-9(6H)-yl)-3-fluoro-4-hydroxy-4-methyltetrahydrofuran-2-yl)methoxy)(3-chloro-4-fluorophenoxy)phosphoryl)amino)propanoate] is less than 1 µM; for `C[C@H](NP(=O)(OC[C@H]1O[C@@H](n2cnc3c(=O)[nH]c(N)nc32)[C@](C)(O)[C@@H]1F)Oc1ccccc1)C(=O)OC1CCCCC1` (stereo partly drawn) [Compound 9, (2S)-cyclohexyl 2-(((((2R,3R,4S,5R)-5-(2-amino-6-oxo-1H-purin-9(6H)-yl)-3-fluoro-4-hydroxy-4-methyltetrahydrofuran-2-yl)methoxy)(phenoxy)phosphoryl)amino)propanoate] it is 1 to 10 µM.

In turn, `C[C@H](NP(=O)(OC[C@H]1O[C@@H](n2cnc3c(=O)[nH]c(N)nc32)[C@](C)(O)[C@@H]1F)Oc1ccccc1Cl)C(=O)OCC(C)(C)C` (stereo partly drawn) [Compound 7, (2S)-neopentyl 2-(((((2R,3R,4S,5R)-5-(2-amino-6-oxo-1H-purin-9(6H)-yl)-3-fluoro-4-hydroxy-4-methyltetrahydrofuran-2-yl)methoxy)(2-chlorophenoxy)phosphoryl)amino)propanoate] registered an EC50 of 10 to 100 µM.

Still in this data set, the particulars now being: Hepatitis C virus, Huh-7; HCV replicon cells, 72 h, Bright-Glo luciferase; read-out: EC50.
`C[C@@]1(O)[C@H](F)[C@@H](CO)O[C@H]1n1cnc2c(=O)[nH]c(N)nc21` [Compound 6, 2-amino-9-((2R,3S,4R,5R)-4-fluoro-3-hydroxy-5-(hydroxymethyl)-3-methyltetrahydrofuran-2-yl)-1H-purin-6(9H)-one]: the EC50 lay within 10 to 100 µM.

Another data set has as its target human mitochondrial RNA polymerase (Homo sapiens, UniProt O00411). The experiment in a line: DdRp assay: incorporation of nucleotides by human mitochondrial RNA polymerase (HMRP). The conditions noted are these: 100 μM of each NTP, single turnover, 30° C., 1 minute; template for GTP analogs.
Consider `Nc1ncnc2c1ncn2[C@@H]1O[C@H](COP(=O)(O)OP(=O)(O)OP(=O)(O)O)[C@@H](O)[C@H]1O` [ATP], for which the “incorporation by human mitochondrial RNA polymerase (product band, FIG. 10)” value is “poor substrate for incorporation”.

A further data set deals with NS5B570-Con1 (Delta-21) (Hepatitis C virus genotype 1b, UniProt Q9WMX2). The experiment in a line: biochemical. Set-up: species or system HCV Con-1 strain.
Details: not given
Consider `C[C@@]1(O)[C@H](F)[C@@H](COP(=O)(O)OP(=O)(O)OP(=O)(O)O)O[C@H]1n1cnc2c(=O)[nH]c(N)nc21` [Compound 15], for which the IC50 (as a rule, the concentration at which inhibition is half-maximal) was less than 1 µM.

Another data set concerns mitochondrial protein synthesis (COX I relative to SDH A) in HepG2 cells.
Experiment: not given
Details: not given
In the case of `Cc1cn([C@H]2C=C[C@@H](CO)O2)c(=O)[nH]c1=O` [d4T], the “inhibition of mitochondrial protein synthesis (FIGS. 11A-B)” value is on record as “found not to inhibit mitochondrial protein synthesis”. Still for that read-out and setting: the entry for `Nc1ccn([C@H]2CC[C@@H](CO)O2)c(=O)n1` [ddC] is “strongly inhibit mitochondrial protein synthesis”.

The values above are taken from US9598457B2, “Substituted nucleosides, nucleotides and analogs thereof” (Alios BioPharma, Inc., priority 2012, dated 2017).
